Data as given in patent publication US4451463A, “Alcohol derivatives” (Imperial Chemical Industries PLC, priority 1981, dated 1984).

Assay: LD50 in mice, dosed intravenously
Details: mouse, in vivo, iv

`NC(=NCC(F)(F)F)Nc1ccnc(OCCCO)n1` [Example 1, 4-[2-(2,2,2-trifluoroethyl)guanidino]-2-(3-hydroxypropoxy)pyrimidine] gave an LD50 of ~30 mg/kg.
